From the supplement of paper PMC5662764
± gives the standard deviation of the averaged measurements.

Assays:
Assay in all cases: normalised growth rate inhibition (GR value) relative to DMSO control (GR (1 = untreated growth, 0 = cytostasis, <0 = cytotoxic)); higher = less growth inhibition
Conditions in all cases: 72 h
MDAMB231 = tested on: MDAMB231
Procedure: (§1)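 Breast cancer cell lines (BT-20, Hs 578T, MCF 10A, MCF7, MDA-MB-231, SK-BR-3) were plated in 384-well plates and treated 24 h later with drugs at six concentrations (0.04-10 µM). Viable cells were counted by Hoechst/dead-cell-stain imaging at 0 and 72 h. Counts were normalised to DMSO controls on the same plate to give the relative cell count and the growth-rate inhibition (GR) value; technical plate triplicates were averaged for each biological replicate.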

MCF7 = tested on: MCF7
Procedure: as §1

SKBR3 = tested on: SKBR3
Procedure: as §1

BT20 = tested on: BT20
Procedure: as §1

HS578T = tested on: HS578T
Procedure: as §1

MCF10A = tested on: MCF10A
Procedure: as §1

SMILES	normalised growth rate inhibition (MDAMB231; 0.04 µM)	normalised growth rate inhibition (MDAMB231; 0.12 µM)	normalised growth rate inhibition (MDAMB231; 0.37 µM)	normalised growth rate inhibition (MDAMB231; 1.11 µM)	normalised growth rate inhibition (MDAMB231; 3.33 µM)	normalised growth rate inhibition (MDAMB231; 10 µM)	normalised growth rate inhibition (MCF7; 0.04 µM)	normalised growth rate inhibition (MCF7; 0.12 µM)	normalised growth rate inhibition (MCF7; 0.37 µM)	normalised growth rate inhibition (MCF7; 1.11 µM)	normalised growth rate inhibition (MCF7; 3.33 µM)	normalised growth rate inhibition (MCF7; 10 µM)	normalised growth rate inhibition (SKBR3; 0.04 µM)	normalised growth rate inhibition (SKBR3; 0.12 µM)	normalised growth rate inhibition (SKBR3; 0.37 µM)	normalised growth rate inhibition (SKBR3; 1.11 µM)	normalised growth rate inhibition (SKBR3; 3.33 µM)	normalised growth rate inhibition (SKBR3; 10 µM)	normalised growth rate inhibition (BT20; 0.04 µM)	normalised growth rate inhibition (BT20; 0.12 µM)	normalised growth rate inhibition (BT20; 0.37 µM)	normalised growth rate inhibition (BT20; 1.11 µM)	normalised growth rate inhibition (BT20; 3.33 µM)	normalised growth rate inhibition (BT20; 10 µM)	normalised growth rate inhibition (HS578T; 0.04 µM)	normalised growth rate inhibition (HS578T; 0.12 µM)	normalised growth rate inhibition (HS578T; 0.37 µM)	normalised growth rate inhibition (HS578T; 1.11 µM)	normalised growth rate inhibition (HS578T; 3.33 µM)	normalised growth rate inhibition (HS578T; 10 µM)	normalised growth rate inhibition (MCF10A; 0.04 µM)	normalised growth rate inhibition (MCF10A; 0.12 µM)	normalised growth rate inhibition (MCF10A; 0.37 µM)	normalised growth rate inhibition (MCF10A; 1.11 µM)	normalised growth rate inhibition (MCF10A; 3.33 µM)	normalised growth rate inhibition (MCF10A; 10 µM)
C[C@@H](Oc1cc(-c2cnn(C3CCNCC3)c2)cnc1N)c1c(Cl)ccc(F)c1Cl [crizotinib]	0.831 ± 0.13	0.885 ± 0.079	0.778 ± 0.096	0.509 ± 0.2	0.175 ± 0.12	-0.0131 ± 0.13	0.762 ± 0.07	0.748 ± 0.078	0.618 ± 0.12	0.351 ± 0.17	0.0468 ± 0.047	-0.174 ± 0.065	0.687 ± 0.14	0.808 ± 0.096	0.753 ± 0.15	0.629 ± 0.15	0.342 ± 0.14	-0.181 ± 0.092	0.805 ± 0.04	0.91 ± 0.024	0.823 ± 0.015	0.742 ± 0.03	0.391 ± 0.17	-0.0468 ± 0.072	0.976 ± 0.034	0.965 ± 0.042	0.903 ± 0.014	0.781 ± 0.12	0.367 ± 0.2	0.0436 ± 0.099	0.988 ± 0.021	0.964 ± 0.032	0.934 ± 0.022	0.906 ± 0.015	0.833 ± 0.028	0.094 ± 0.017
Cc1nc(Nc2ncc(C(=O)Nc3c(C)cccc3Cl)s2)cc(N2CCN(CCO)CC2)n1 [dasatinib]	0.159 ± 0.29	-0.107 ± 0.1	-0.204 ± 0.032	-0.233 ± 0.054	-0.239 ± 0.061	-0.259 ± 0.12	0.342 ± 0.32	0.0795 ± 0.2	-0.0261 ± 0.17	-0.0357 ± 0.15	-0.0394 ± 0.16	-0.0825 ± 0.16	0.998 ± 0.06	0.937 ± 0.08	0.942 ± 0.058	0.766 ± 0.064	0.398 ± 0.15	-0.166 ± 0.22	0.622 ± 0.27	0.364 ± 0.2	0.0964 ± 0.081	0.0125 ± 0.077	-0.085 ± 0.094	-0.163 ± 0.1	0.394 ± 0.28	0.17 ± 0.22	0.0194 ± 0.17	-0.0213 ± 0.16	-0.0565 ± 0.17	-0.109 ± 0.15	0.621 ± 0.24	0.391 ± 0.23	0.196 ± 0.14	0.0869 ± 0.091	-0.0296 ± 0.08	-0.138 ± 0.061
CN1CCN(c2ccc3nc(-c4c(N)c5c(F)cccc5[nH]c4=O)[nH]c3c2)CC1 [dovitinib]	0.903 ± 0.11	0.817 ± 0.14	0.534 ± 0.1	0.451 ± 0.12	0.343 ± 0.068	0.23 ± 0.099	0.898 ± 0.047	0.862 ± 0.079	0.678 ± 0.14	0.554 ± 0.19	0.379 ± 0.17	0.304 ± 0.1	0.711 ± 0.12	0.659 ± 0.066	0.497 ± 0.062	0.474 ± 0.081	0.275 ± 0.04	0.142 ± 0.045	0.83 ± 0.047	0.685 ± 0.11	0.394 ± 0.13	0.304 ± 0.072	0.219 ± 0.034	0.156 ± 0.12	0.791 ± 0.047	0.562 ± 0.035	0.3 ± 0.083	0.271 ± 0.097	0.283 ± 0.079	0.254 ± 0.16	0.962 ± 0.032	0.893 ± 0.046	0.599 ± 0.098	0.368 ± 0.18	0.146 ± 0.085	0.0253 ± 0.033
Cn1cc(C2=C(c3cn(C4CCN(Cc5ccccn5)CC4)c4ccccc34)C(=O)NC2=O)c2ccccc21 [enzastaurin]	1 ± 0.023	1.01 ± 0.035	1 ± 0.048	1 ± 0.071	1.01 ± 0.036	1.03 ± 0.079	0.978 ± 0.052	0.999 ± 0.035	1.01 ± 0.035	0.946 ± 0.039	0.936 ± 0.084	0.693 ± 0.31	1.1 ± 0.097	1.07 ± 0.085	1.1 ± 0.033	1.06 ± 0.033	1.07 ± 0.056	0.958 ± 0.18	1.01 ± 0.1	1.03 ± 0.057	1.07 ± 0.043	1.07 ± 0.079	1.13 ± 0.057	1.19 ± 0.062	1.02 ± 0.027	0.998 ± 0.018	1 ± 0.028	1.02 ± 0.027	1.01 ± 0.019	0.935 ± 0.035	1.006 ± 0.0093	1 ± 0.014	1 ± 0.018	1.02 ± 0.03	1.01 ± 0.061	0.985 ± 0.11
